What is called Kd is the free concentration of one partner at which half of the binding sites on the other are occupied at equilibrium, for simple one-to-one binding. The inhibition is the share of the control response that was lost under treatment. One may read the IC50 as the point on the concentration scale where inhibition reaches its midpoint.

Assay [1] concerns Mus musculus. Put plainly: Antiinflammatory activity in LPS-induced C57/BL6 mouse model of acute lung injury assessed as reduction in IL6 level in BALF at 10 mg/kg, ip pretreated for 30 mins followed by LPS challenge measured after 6 hrs by ELISA. In kind it is functional, organism-based.
In assay [2] the test system is Mus musculus. The assay can be described thus: Antiinflammatory activity in LPS-induced C57/BL6 mouse model of acute lung injury assessed as reduction in IL6 level in serum at 10 mg/kg, ip pretreated for 30 mins followed by LPS challenge measured after 6 hrs by ELISA. The assay is classed as functional, organism-based. (In general: In an ELISA, binding on a coated surface is turned into a signal by an enzyme label.)

Assay [3] addresses T1, Myeloid differentiation primary response protein MyD88 (Homo sapiens, UniProt Q99836). Put plainly: Binding affinity to recombinant human MyD88 TIR domain (157 to 296 residues) expressed in Escherichia coli BL21(DE3) by surface plasmon resonance analysis. Background: Surface plasmon resonance follows binding to a sensor surface in real time, without labels.
In assay [4] the target is Myeloid differentiation primary response protein MyD88 (Mus musculus) (UniProt P22366). Put plainly: Inhibition of MyD88 in ICR mouse primary peritoneal macrophages assessed as reduction in LPS-induced p38 MAPK phosphorylation at 20 uM preincubated for 30 mins followed by LPS-stimulation and measured after 20 mins by Western blot analysis. On the technique in general: In western blotting, separated proteins are transferred to a membrane and probed.
Chain of Myeloid differentiation primary response protein MyD88 (Mus musculus) (P22366 whole entry): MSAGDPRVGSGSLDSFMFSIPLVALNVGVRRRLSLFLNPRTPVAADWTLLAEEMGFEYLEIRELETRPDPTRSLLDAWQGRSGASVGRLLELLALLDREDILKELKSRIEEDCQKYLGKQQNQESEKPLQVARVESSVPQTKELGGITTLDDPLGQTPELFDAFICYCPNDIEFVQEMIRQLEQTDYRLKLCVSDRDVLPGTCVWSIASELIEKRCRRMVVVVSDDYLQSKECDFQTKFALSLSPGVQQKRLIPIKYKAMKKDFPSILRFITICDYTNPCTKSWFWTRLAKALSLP

For assay [5], the system named is Peritoneal macrophage. The assay can be described thus: Antiinflammatory activity in ICR mouse primary peritoneal macrophages assessed as inhibition of LPS-induced IL-6 production preincubated for 2 hrs followed by LPS stimulation and measured after 22 hrs by ELISA. The assay is classed as functional, cell-based.
For assay [6], the target named is Myeloid differentiation primary response protein MyD88 (Mus musculus) (UniProt P22366). The assay can be described thus: Inhibition of MyD88 in ICR mouse primary peritoneal macrophages assessed as reduction in LPS-induced ERK phosphorylation at 20 uM preincubated for 30 mins followed by LPS-stimulation and measured after 20 mins by Western blot analysis.
The test system of assay [7] is Peritoneal macrophage. Put plainly: Antiinflammatory activity in ICR mouse primary peritoneal macrophages assessed as inhibition of LPS-induced IL-6 production at 20 uM preincubated for 60 mins followed by LPS stimulation and measured after 24 hrs by ELISA relative to control. The assay is classed as functional.
Assay [8] has as its system Mus musculus. Put plainly: Antiinflammatory activity in LPS-induced C57/BL6 mouse model of acute lung injury assessed as reduction in lung wet/dry ratio at 10 mg/kg, ip pretreated for 30 mins followed by LPS challenge measured after 6 hrs. In kind it is functional, organism-based.
For assay [9], the system named is Peritoneal macrophage. The assay can be described thus: Antiinflammatory activity in ICR mouse primary peritoneal macrophages assessed as inhibition of LPS-induced TNFalpha production at 20 uM preincubated for 60 mins followed by LPS stimulation and measured after 24 hrs by ELISA relative to control. In kind it is functional.
The target of assay [10] is Myeloid differentiation primary response protein MyD88 (Mus musculus) (UniProt P22366). The assay can be described thus: Inhibition of MyD88 in ICR mouse primary peritoneal macrophages assessed as reduction in LPS-induced JNK phosphorylation at 20 uM preincubated for 30 mins followed by LPS-stimulation and measured after 20 mins by Western blot analysis.
Assay [11] has as its system Peritoneal macrophage. The assay can be described thus: Antiinflammatory activity in ICR mouse primary peritoneal macrophages assessed as inhibition of LPS-induced TNFalpha production preincubated for 2 hrs followed by LPS stimulation and measured after 22 hrs by ELISA. The assay is classed as functional, cell-based.
For assay [12], the target named is T1, Myeloid differentiation primary response protein MyD88. The assay can be described thus: Inhibition of LPS-induced HA-tagged MyD88 (unknown origin) interaction with FLAG-tagged MyD88 (unknown origin) expressed in HEK293 cells at 20 uM after 48 hrs by co-immunoprecipitation method. In kind it is cell-based.
Assay [13] concerns Mus musculus. The assay can be described thus: Antiinflammatory activity in LPS-induced C57/BL6 mouse model of acute lung injury assessed as reduction in TNFalpha level in BALF at 10 mg/kg, ip pretreated for 30 mins followed by LPS challenge measured after 6 hrs by ELISA. The assay is classed as functional, organism-based.
The subject of assay [14] is Mus musculus. Put plainly: Antiinflammatory activity in LPS-induced C57/BL6 mouse model of acute lung injury assessed as reduction in TNFalpha level in serum at 10 mg/kg, ip pretreated for 30 mins followed by LPS challenge measured after 6 hrs by ELISA. In kind it is functional, organism-based.

Calls of active or inactive are those of the source. The calls are words filed in the database; no cut-off is given here.

T1 sequence (Q99836 whole entry, the tested form may be a part): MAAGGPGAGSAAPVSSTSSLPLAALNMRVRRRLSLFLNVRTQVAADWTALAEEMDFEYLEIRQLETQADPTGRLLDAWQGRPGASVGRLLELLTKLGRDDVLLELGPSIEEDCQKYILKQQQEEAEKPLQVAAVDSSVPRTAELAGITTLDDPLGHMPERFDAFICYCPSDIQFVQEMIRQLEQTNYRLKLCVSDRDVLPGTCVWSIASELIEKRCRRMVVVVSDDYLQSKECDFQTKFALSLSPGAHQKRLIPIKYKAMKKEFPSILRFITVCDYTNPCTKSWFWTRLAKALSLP

Regarding `O=C(CCN1CCN(Cc2ccccc2)CC1)Nc1nc(-c2ccccc2)cs1`, the outcome with Mus musculus [1], in the assay with Mus musculus [2], with Mus musculus [8], in the assay with Mus musculus [13] and with Mus musculus [14] was Active. The Ka in assay [3] is 3340 M⁻¹ s⁻¹. For the same molecule, the Kd in [3] is 180 µM. Also, the Kdiss in assay [3] was found to be 0.6 s⁻¹. Besides, the inhibition entry in assay [4], in assay [6], in assay [10] and in assay [12] was “Active” in each case. Moreover, the results for the IC50 with Peritoneal macrophage [5] and with Peritoneal macrophage [11] were 10.2 µM and 11.9 µM, respectively. Also, the inhibition at 20 µM with Peritoneal macrophage [7] stood at 69.3%; in the assay with Peritoneal macrophage [9], 47%.

Values taken from ChEMBL document CHEMBL4325844, “Development of 2-amino-4-phenylthiazole analogues to disrupt myeloid differentiation factor 88 and prevent inflammatory responses in acute lung injury” (Eur J Med Chem, 2019).
